Source: patent US4302448A, “Secretin preparations with intensified and protracted action, process for their manufacture, their use as well as dihydroxybenzoyl-L-tyrosine” (Hoechst Aktiengesellschaft, priority 1979, dated 1981)
Where a SMILES comes first, the peptide text is derived from it. Side-chain parts run from the residue outwards. [ ]: non-standard residue; d: D form. The star is where a group is joined. Cbz = O=C(OCc1ccccc1)*

Tested on: Pancreatic juice secretion of the rat
Assay: Pancreatic juice secretion of the rat after subcutaneous administration of secretin with depot bodies
Type: in vivo
Conditions: rat, subcutaneous, 5 CU/kg secretin + 10 mg depot body/animal; for Δ% vs. control (percentage by which the pancreatic secretion is above the basal secretion after 5 hours): control=100%, measure of depot effect; for Rel. Intensity of effect over 5 hours (total pancreatic juice secretion over 5 hours as compared with control): control (0.9% of NaCl)=1
Method: Secretin preparations for subcutaneous application which contained the depot bodies specified in the following Table were tested in animal experiments. In the experimental procedure chosen, 5 to 8 male rats weighing 300 to 500 g each are administered subcutaneously 5 CU/kg of secretin (CU means clinical unit) and 10 mg of the depot body to be tested each in aqueous solution or suspension.
The animals remain without food for 18 hours prior to the test, but they are given water ad libitum. Under urethane anaesthesia (5 ml/kg i.m. of 25% urethane) the abdomen is opened by median section after tracheotomy, and the pylorus is ligated. The ductus choledochus is tied off in its proximal part near the porta hepatis, and the bile is led into the duodenum via a polyethylene tube of a diameter of […]. A cannula or catheter is inserted into the distal part of the bile duct, into which the numerous pancreatic ducts open, immediately before it opens into the duodenum, and the volume of the secretion running off is measured in 60 minute intervals. Following a preliminary run of 60 minutes the preparations are administered.
L means the compound known from literature and characterized by the melting point, optionally UV, IR or NMR. A to C relate to the preparation according to Example 1, process A to C. These compounds were characterized by ultimate analysis. The third column indicates the percentage by which the pancreatic secretion is above the basal secretion after 5 hours (calculated on the control=100%). This value is a measure for the depot effect of the depot body tested. Column 4 indicates the intensification of the secretin effect, with the total pancreatic juice secretion having been given over 5 hours as compared with the control (0.9% of NaCl)=1.

O=S(=O)(c1ccc(O)cc1)c1ccc(O)cc1 [4,4'-Dihydroxy-diphenyl sulfone]
Δ% vs. control (percentage by which the pancreatic secretion is above the basal secretion after 5 hours): 74% | Rel. Intensity of effect over 5 hours (total pancreatic juice secretion over 5 hours as compared with control): 6.2

COC(=O)c1ccc(O)cc1 [4-Hydroxy-benzoic acid-methyl-ester]
Δ% vs. control (percentage by which the pancreatic secretion is above the basal secretion after 5 hours): 15% | Rel. Intensity of effect over 5 hours (total pancreatic juice secretion over 5 hours as compared with control): 5.3

OCc1ccc(O)cc1 [4-Hydroxy-benzyl alcohol]
Δ% vs. control (percentage by which the pancreatic secretion is above the basal secretion after 5 hours): 12% | Rel. Intensity of effect over 5 hours (total pancreatic juice secretion over 5 hours as compared with control): 1.3

CC(=O)c1ccc(O)cc1 [4-Hydroxyacetophenone]
Δ% vs. control (percentage by which the pancreatic secretion is above the basal secretion after 5 hours): 43% | Rel. Intensity of effect over 5 hours (total pancreatic juice secretion over 5 hours as compared with control): 8.1

O=S(=O)([O-])c1ccc(O)cc1.[Na+] [4-Hydroxybenzene-sulfonic acid-Na]
Δ% vs. control (percentage by which the pancreatic secretion is above the basal secretion after 5 hours): 18% | Rel. Intensity of effect over 5 hours (total pancreatic juice secretion over 5 hours as compared with control): 2.7

O=C(O)c1ccc(O)cc1 [4-Hydroxybenzoic acid]
Δ% vs. control (percentage by which the pancreatic secretion is above the basal secretion after 5 hours): 38% | Rel. Intensity of effect over 5 hours (total pancreatic juice secretion over 5 hours as compared with control): 3.8

O=C(c1ccccc1)c1ccc(O)cc1 [4-Hydroxybenzophenone]
Δ% vs. control (percentage by which the pancreatic secretion is above the basal secretion after 5 hours): 70% | Rel. Intensity of effect over 5 hours (total pancreatic juice secretion over 5 hours as compared with control): 6.7

Oc1cccc2cccnc12 [8-Hydroxyquinoline]
Δ% vs. control (percentage by which the pancreatic secretion is above the basal secretion after 5 hours): 37% | Rel. Intensity of effect over 5 hours (total pancreatic juice secretion over 5 hours as compared with control): 4.7

O=C(N[C@@H](Cc1ccc(O)cc1)C(=O)O)OCc1ccccc1 [Benzyloxycarbonyl-L-tyrosine]
Δ% vs. control (percentage by which the pancreatic secretion is above the basal secretion after 5 hours): 7% | Rel. Intensity of effect over 5 hours (total pancreatic juice secretion over 5 hours as compared with control): 5.9

O=C(N[C@@H](Cc1ccc(O)cc1)C(=O)N[C@@H](Cc1ccc(O)cc1)C(=O)O)OCc1ccccc1 [Benzyloxycarbonyl-L-tyrosyl-L-tyrosine] (Cbz-Tyr-Tyr-OH)
Δ% vs. control (percentage by which the pancreatic secretion is above the basal secretion after 5 hours): 62% | Rel. Intensity of effect over 5 hours (total pancreatic juice secretion over 5 hours as compared with control): 7.5

O=C(NCCNC(=O)c1ccc(O)cc1O)c1ccc(O)cc1O [Bis-(2,4-dihydroxybenzoyl-)-diaminoethane]
Δ% vs. control (percentage by which the pancreatic secretion is above the basal secretion after 5 hours): 69% | Rel. Intensity of effect over 5 hours (total pancreatic juice secretion over 5 hours as compared with control): 6.5

O=C(N[C@@H](Cc1ccc(O)cc1)C(=O)NCCCC[C@H](NC(=O)[C@H](Cc1ccc(O)cc1)NC(=O)c1cc(O)cc(O)c1)C(=O)N(CCO)CCO)c1cc(O)cc(O)c1 [Nα,Nε-Bis(3,5-dihydroxybenzoyl-L-tyrosyl)-L-lysine-diethanol-amide]
Δ% vs. control (percentage by which the pancreatic secretion is above the basal secretion after 5 hours): 86% | Rel. Intensity of effect over 5 hours (total pancreatic juice secretion over 5 hours as compared with control): 8.8

O=C(N[C@@H](Cc1ccc(O)cc1)C(=O)NCCCC[C@@H](NC(=O)[C@H](Cc1ccc(O)cc1)NC(=O)OCc1ccccc1)C(=O)O)OCc1ccccc1 [Nα,Nε-Bis-(benzyloxycarbonyl-L-tyrosyl)-D-lysine] (Cbz-Tyr-[dK]([Tyr-Cbz])-OH)
Δ% vs. control (percentage by which the pancreatic secretion is above the basal secretion after 5 hours): 13% | Rel. Intensity of effect over 5 hours (total pancreatic juice secretion over 5 hours as compared with control): 1.5
